One may read the IC50 as the concentration that inhibits the measured activity by half.

Here are results for 19 compounds from patent publication US20070155764A1, “NOVEL SUBSTITUTED PYRIMIDINYLOXY UREAS USEFUL AS INHIBITORS OF PROTEIN KINASES” (KALYPSYS, INC., priority 2005, published 2007).

The target in data set [1] is T1, human B-Raf protein kinase (Homo sapiens, UniProt P15056).
T1 construct: GST (N); purchased Upstate Inc. 14-530 (B-Raf); 14-420 (Mek1)
Briefly: In vitro B-Raf/Mek1 composite kinase assay. The note with it: recombinant GST-tagged human B-Raf (Δ1-415) with inactive Mek1, 2 μM ATP. Format: biochemical. The method, boiled down:
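Luminescent ATP-depletion assay using recombinant N-terminal GST-tagged human B-Raf (Δ1-415, 1 ng/well) in MOPS pH 7.2 buffer with 10 mM MgCl2. Compounds were preincubated 15 min at about 22° C, then the reaction ran 2 h before PKLight readout. Efficacy is expressed as percentage of positive-control (Bay 43-9006) activity.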

The target in data set [2] is T2, VEGFR2 kinase (Homo sapiens, UniProt P35968).
T2 construct: purchased Invitrogen Inc PV3660
T2 sequence (P35968 20-1356): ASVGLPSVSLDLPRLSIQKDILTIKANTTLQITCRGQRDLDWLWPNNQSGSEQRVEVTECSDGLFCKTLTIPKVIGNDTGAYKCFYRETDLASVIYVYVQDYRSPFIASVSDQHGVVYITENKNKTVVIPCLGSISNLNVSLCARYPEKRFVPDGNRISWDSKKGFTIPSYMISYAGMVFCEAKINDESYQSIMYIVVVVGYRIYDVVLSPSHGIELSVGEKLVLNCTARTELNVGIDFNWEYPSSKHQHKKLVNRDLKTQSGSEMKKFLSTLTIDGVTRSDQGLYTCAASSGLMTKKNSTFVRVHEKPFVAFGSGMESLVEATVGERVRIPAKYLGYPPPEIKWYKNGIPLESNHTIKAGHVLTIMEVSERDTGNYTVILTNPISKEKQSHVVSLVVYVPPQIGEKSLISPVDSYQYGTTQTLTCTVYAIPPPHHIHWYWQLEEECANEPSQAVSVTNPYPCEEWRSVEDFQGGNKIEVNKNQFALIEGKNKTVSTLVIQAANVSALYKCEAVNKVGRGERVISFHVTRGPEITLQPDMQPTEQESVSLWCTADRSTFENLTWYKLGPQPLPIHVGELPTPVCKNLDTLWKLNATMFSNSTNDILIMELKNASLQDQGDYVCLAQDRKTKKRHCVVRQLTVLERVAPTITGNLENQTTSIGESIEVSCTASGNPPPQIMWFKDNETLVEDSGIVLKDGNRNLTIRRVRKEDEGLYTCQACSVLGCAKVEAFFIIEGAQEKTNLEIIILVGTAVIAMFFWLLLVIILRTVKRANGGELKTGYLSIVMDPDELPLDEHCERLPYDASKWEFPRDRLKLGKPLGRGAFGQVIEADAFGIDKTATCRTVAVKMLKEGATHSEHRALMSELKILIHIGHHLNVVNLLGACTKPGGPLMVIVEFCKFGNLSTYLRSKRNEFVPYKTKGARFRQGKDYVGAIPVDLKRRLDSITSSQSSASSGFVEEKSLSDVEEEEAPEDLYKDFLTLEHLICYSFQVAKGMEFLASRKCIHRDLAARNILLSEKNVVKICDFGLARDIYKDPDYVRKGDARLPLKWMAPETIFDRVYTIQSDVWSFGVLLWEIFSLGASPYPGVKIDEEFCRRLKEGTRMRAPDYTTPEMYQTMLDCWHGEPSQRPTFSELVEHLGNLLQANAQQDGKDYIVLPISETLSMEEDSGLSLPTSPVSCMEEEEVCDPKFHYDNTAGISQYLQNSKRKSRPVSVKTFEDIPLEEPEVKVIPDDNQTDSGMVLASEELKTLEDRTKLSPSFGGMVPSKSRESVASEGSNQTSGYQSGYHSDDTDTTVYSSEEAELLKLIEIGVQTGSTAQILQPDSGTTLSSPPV
Briefly: In vitro VEGFR2 kinase assay. Format: biochemical. The note with it: ADP Quest assay, poly Glu:Tyr substrate, 60 μM ATP. The method, boiled down: (§1)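 Compound was preincubated 10 min at ~22 °C with 20 ng VEGFR2 or 25 ng PDGFRβ, then poly Glu:Tyr (4:1) substrate (0.25 μg) with 60 μM ATP (in added buffer) was reacted 2 h at 30 °C. ADP Quest resorufin fluorescence was read (ex 530/em 580) after 30 min. Efficacy is expressed as percent of positive-control (Bay 43-9006) activity, with DMSO as negative control.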

Data set [3] addresses T3, PDGFRβ kinase (Homo sapiens, UniProt P09619).
T3 construct: purchased Invitrogen Inc. P3082
Briefly: In vitro PDGFRβ kinase assay. Format: biochemical. The note with it: ADP Quest assay, poly Glu:Tyr substrate, 60 μM ATP. A digest of the protocol:
as §1

For data set [4], the system named is HT-29 human colon carcinoma tumor cells. The data set can be described thus: In vivo anti-tumor activity, HT-29 xenograft. To be noted: 60 mg/kg once daily by oral gavage; for T/C (%): HT-29 subcutaneous tumors in female Balb/C nu/nu mice, treated/control average tumor size at end of study; for Survival: HT-29 tumor-bearing female Balb/C nu/nu mice, surviving/total. The procedure: In Vivo Anti-Tumor Activity
Acclimated female Balb/C nu/nu mice are injected subcutaneously into the flank with cell pellets of 5×10^6 HT-29 human colon carcinoma tumor cells (ATCC #HTB-38). The mice are fed sterile rodent chow and water ad libitum, and kept in pathogen-free, sterile-filtered cages with half-day light/dark cycles. Tumors are allowed to grow until they reach an average size of 100-150 mm^3, determined by caliper measurement. One day before beginning treatment, mice are randomized by tumor size into evenly distributed cohorts. Mice are dosed once daily by oral gavage (10 ml/kg) with compounds formulated as solutions in Cremaphor EL:Ethanol:Water, at a 1:1:6 ratio. Control mice are dosed with the formulation vehicle only. Tumor size and mouse weight are monitored every three to four days. At the end of the study, treatment efficacy is determined by the T/C value, calculated by dividing the average tumor size of a compound-treated cohort by the average tumor size of the control-treated cohort, expressed as a percentage. Therefore, anti-tumor efficacy is inversely proportional to the T/C.

T3 sequence (P09619 33-1106): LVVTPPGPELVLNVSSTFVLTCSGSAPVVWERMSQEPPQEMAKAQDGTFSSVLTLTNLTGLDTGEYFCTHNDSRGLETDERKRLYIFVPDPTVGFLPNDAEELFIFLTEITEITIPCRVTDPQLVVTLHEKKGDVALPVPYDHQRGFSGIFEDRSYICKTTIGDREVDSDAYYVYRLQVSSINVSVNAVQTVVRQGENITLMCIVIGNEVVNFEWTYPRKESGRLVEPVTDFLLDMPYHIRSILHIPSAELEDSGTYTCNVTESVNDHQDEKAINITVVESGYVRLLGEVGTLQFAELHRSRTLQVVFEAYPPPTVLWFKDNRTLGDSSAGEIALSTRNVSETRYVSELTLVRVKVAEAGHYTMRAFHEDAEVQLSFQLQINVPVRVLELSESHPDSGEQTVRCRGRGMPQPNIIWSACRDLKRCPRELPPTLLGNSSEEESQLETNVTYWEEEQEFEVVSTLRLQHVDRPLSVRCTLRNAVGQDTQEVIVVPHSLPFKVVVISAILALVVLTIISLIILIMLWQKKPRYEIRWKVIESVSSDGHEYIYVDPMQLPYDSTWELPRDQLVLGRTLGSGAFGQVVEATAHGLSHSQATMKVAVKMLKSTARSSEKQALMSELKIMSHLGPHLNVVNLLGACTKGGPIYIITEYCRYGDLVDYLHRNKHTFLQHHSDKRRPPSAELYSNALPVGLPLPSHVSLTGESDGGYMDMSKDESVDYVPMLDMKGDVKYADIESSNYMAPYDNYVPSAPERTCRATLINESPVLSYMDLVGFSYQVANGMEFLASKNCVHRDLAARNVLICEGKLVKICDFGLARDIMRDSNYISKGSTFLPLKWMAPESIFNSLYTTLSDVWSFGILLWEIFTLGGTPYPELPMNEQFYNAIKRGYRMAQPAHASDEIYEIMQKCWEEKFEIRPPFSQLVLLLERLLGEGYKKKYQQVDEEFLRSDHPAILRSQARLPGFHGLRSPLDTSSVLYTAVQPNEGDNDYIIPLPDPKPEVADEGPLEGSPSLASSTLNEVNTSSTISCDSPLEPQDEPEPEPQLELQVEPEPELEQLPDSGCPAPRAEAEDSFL
T1 sequence (P15056 416-766): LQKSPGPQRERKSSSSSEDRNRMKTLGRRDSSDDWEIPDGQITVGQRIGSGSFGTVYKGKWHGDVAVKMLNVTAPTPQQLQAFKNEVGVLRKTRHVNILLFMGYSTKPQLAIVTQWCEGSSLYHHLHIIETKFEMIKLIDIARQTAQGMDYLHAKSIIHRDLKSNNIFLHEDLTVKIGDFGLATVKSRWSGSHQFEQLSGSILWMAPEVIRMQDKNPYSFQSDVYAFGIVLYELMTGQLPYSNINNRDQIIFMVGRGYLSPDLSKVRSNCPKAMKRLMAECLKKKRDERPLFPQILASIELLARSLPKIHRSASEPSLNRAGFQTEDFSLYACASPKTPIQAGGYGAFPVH

Turning to `Cn1cc(-c2cc(Oc3cccc(NC(=O)Nc4ccc(Cl)c(C(F)(F)F)c4)c3)ncn2)cn1` [Example 34, 1-(4-Chloro-3-(trifluoromethyl)phenyl)-3-(3-(6-(1-methyl-1H-pyrazol-4-yl)pyrimidin-4-yloxy)phenyl)urea], the IC50 in data set [1], in data set [2] and in data set [3] was not above 10 µM each time. Also, the “T/C (%)” value in data set [4] stood at 20%. In data set [4], the Survival is reported as 10/10.
As for `Cn1cc(-c2nccc(Oc3ccc(NC(=O)Nc4ccc(Cl)c(C(F)(F)F)c4)cc3)n2)cn1` [Example 65, 1-(4-Chloro-3-(trifluoromethyl)phenyl)-3-(4-(2-(1-methyl-1H-pyrazol-4-yl)pyrimidin-4-yloxy)phenyl)urea], the IC50 in data set [1], in data set [2] and in data set [3] was not above 10 µM throughout. For the same compound, the “T/C (%)” value in data set [4] turned out to be 25%. Also, in data set [4], the Survival is 10/10.
With `Cn1cc(-c2cc(Oc3ccc(F)c(NC(=O)Nc4ccc(Cl)c(C(F)(F)F)c4)c3)ncn2)cn1` [Example 66, 1-(4-Chloro-3-(trifluoromethyl)phenyl)-3-(2-fluoro-5-(6-(1-methyl-1H-pyrazol-4-yl)pyrimidin-4-yloxy)phenyl)urea], the IC50 in data set [1], in data set [2] and in data set [3] was not above 10 µM throughout. For the same compound, the “T/C (%)” value in data set [4] was 11%. Further, the Survival in data set [4] is reported as 10/10.
`Cn1cc(-c2cc(Oc3cccc(NC(=O)Nc4ccc(C(F)(F)F)cc4)c3)ncn2)cn1` [Example 87, 1-(3-(6-(1-Methyl-1H-pyrazol-4-yl)pyrimidin-4-yloxy)phenyl)-3-(4-(trifluoromethyl)phenyl)urea]: the IC50 in data set [1], in data set [2] and in data set [3] was not above 10 µM throughout. The “T/C (%)” value in data set [4] was determined as 15%. In data set [4], the Survival is 10/10.
In the case of `O=C(Nc1cccc(Oc2cc(-c3ccnc4ccnn34)ncn2)c1)Nc1ccc(Cl)c(C(F)(F)F)c1` [Example 106, 1-(4-Chloro-3-(trifluoromethyl)phenyl)-3-(3-(6-(pyrazolo[1,5-a]pyrimidin-7-yl)pyrimidin-4-yloxy)phenyl)urea], the IC50 in data set [1], in data set [2] and in data set [3] was not above 10 µM in each case.
As to `O=C(Nc1cccc(Oc2cc(-c3ccnc4ncnn34)ncn2)c1)Nc1ccc(Cl)c(C(F)(F)F)c1` [Example 107, 1-(3-(6-([1,2,4]Triazolo[1,5-a]pyrimidin-7-yl)pyrimidin-4-yloxy)phenyl)-3-(4-chloro-3-(trifluoromethyl)phenyl)urea], the IC50 in data set [1], in data set [2] and in data set [3] was not above 10 µM in each case.
Turning to `CN(C(=O)Nc1ccc(Oc2ccnc(-c3nnco3)c2)cc1)c1ccc(Cl)c(C(F)(F)F)c1` [Example 108, 3-(4-(2-(1,3,4-Oxadiazol-2-yl)pyridin-4-yloxy)phenyl)-1-(4-chloro-3-(trifluoromethyl)phenyl)-1-methylurea], the IC50 in data set [1], in data set [2] and in data set [3] was more than 10 µM each time.
With `CN(C(=O)Nc1cccc(Oc2ccnc(-c3nnco3)c2)c1)c1ccc(Cl)c(C(F)(F)F)c1` [Example 109, 3-(3-(2-(1,3,4-Oxadiazol-2-yl)pyridin-4-yloxy)phenyl)-1-(4-chloro-3-(trifluoromethyl)phenyl)-1-methylurea], the IC50 was not above 10 µM in data set [1], more than 10 µM in data set [2] and more than 10 µM in data set [3].
Take `CN(C(=O)Nc1ccc(Cl)c(C(F)(F)F)c1)c1ccc(Oc2ccnc(-c3nnco3)c2)cc1` [Example 110, 1-(4-(2-(1,3,4-Oxadiazol-2-yl)pyridin-4-yloxy)phenyl)-3-(4-chloro-3-(trifluoromethyl)phenyl)-1-methylurea]: the IC50 in data set [1], in data set [2] and in data set [3] was not above 10 µM each time.
Regarding `CN(C(=O)Nc1ccc(Cl)c(C(F)(F)F)c1)c1cccc(Oc2ccnc(-c3nnco3)c2)c1` [Example 111], the IC50 in data set [1] was more than 10 µM; in data set [2], more than 10 µM; in data set [3], not above 10 µM.
As for `Cc1ccc(F)c(NC(=O)N(C)c2ccc(Oc3ccnc(-c4nnco4)c3)cc2)c1` [Example 112, 3-(2-Fluoro-5-methyl-phenyl)-1-methyl-1-[4-(2-[1,3,4]oxadiazol-2-yl-pyridin-4-yloxy)-phenyl]-urea], the IC50 is not above 10 µM in data set [1], more than 10 µM in data set [2] and not above 10 µM in data set [3].
As to `CN(C(=O)Nc1ccc(Cl)c(Cl)c1)c1ccc(Oc2ccnc(-c3nnco3)c2)cc1` [Example 113, 3-(3,4-Dichloro-phenyl)-1-methyl-1-[4-(2-[1,3,4]oxadiazol-2-yl-pyridin-4-yloxy)-phenyl]-urea], the figures for the IC50 in data set [1], in data set [2] and in data set [3] were not above 10 µM, more than 10 µM and not above 10 µM, respectively.
Regarding `CNC(=O)c1cc(Oc2ccc(N(C)C(=O)Nc3ccc(Cl)c(C(F)(F)F)c3)cc2)ccn1` [Example 114, 4-{4-[3-(4-Chloro-3-trifluoromethyl-phenyl)-1-methyl-ureido]-phenoxy}-pyridine-2-carboxylic acid methylamide], the IC50 in data set [1], in data set [2] and in data set [3] was not above 10 µM each time.
As for `CNC(=O)c1cccc(NC(=O)N(C)c2ccc(Oc3ccnc(C(=O)NC)c3)cc2)c1` [Example 115, 4-{4-[1-Methyl-3-(3-methylcarbamoyl-phenyl)-ureido]-phenoxy}-pyridine-2-carboxylic acid methylamide], the IC50 in data set [1] was not above 10 µM; in data set [2] it was more than 10 µM; in data set [3] it was more than 10 µM.
With `CNC(=O)c1cc(NC(=O)N(C)c2ccc(Oc3ccnc(C(=O)NC)c3)cc2)cc(C(F)(F)F)c1` [Example 116, 4-{4-[1-Methyl-3-(3-methylcarbamoyl-5-trifluoromethyl-phenyl)-ureido]-phenoxy}-pyridine-2-carboxylic acid methylamide], the results for the IC50 in data set [1], in data set [2] and in data set [3] were more than 10 µM, not above 10 µM and not above 10 µM, respectively.
`CNC(=O)c1cc(Oc2ccc(N(C)C(=O)Nc3cc(OCCOC)cc(C(F)(F)F)c3)cc2)ccn1` [Example 117, 4-(4-{3-[3-(2-Methoxy-ethoxy)-5-trifluoromethyl-phenyl]-1-methyl-ureido}-phenoxy)-pyridine-2-carboxylic acid methylamide]: the IC50 was more than 10 µM in data set [1], not above 10 µM in data set [2] and not above 10 µM in data set [3].
For the compound `CNC(=O)c1cc(Oc2ccc(N(C)C(=O)Nc3cc(-n4cnc(C)c4)cc(C(F)(F)F)c3)cc2)ccn1` [Example 118, 4-(4-{1-Methyl-3-[3-(4-methyl-imidazol-1-yl)-5-trifluoromethyl-phenyl]-ureido}-phenoxy)-pyridine-2-carboxylic acid methylamide], the IC50 in data set [1], in data set [2] and in data set [3] was not above 10 µM each time.
In the case of `CN(C(=O)Nc1ccc(Cl)c(C(F)(F)F)c1)c1ccc(Oc2ccnc(-c3cnn(C)c3)c2)cc1` [Example 119, 3-(4-Chloro-3-trifluoromethyl-phenyl)-1-methyl-1-{4-[2-(1-methyl-1H-pyrazol-4-yl)-pyridin-4-yloxy]-phenyl}-urea], the IC50 in data set [1], in data set [2] and in data set [3] was not above 10 µM in each case.
`CN(C(=O)Nc1ccc(Cl)c(C(F)(F)F)c1)c1ccc(Oc2ccnc(-c3nc(C(F)(F)F)c[nH]3)c2)cc1` [Example 120, 3-(4-Chloro-3-trifluoromethyl-phenyl)-1-methyl-1-{4-[2-(4-trifluoromethyl-1H-imidazol-2-yl)-pyridin-4-yloxy]-phenyl}-urea]: the IC50 in data set [1], in data set [2] and in data set [3] was not above 10 µM in each case.
